# Patent US12503448B2, “Antibacterial and antiparasitic quinoxaline-2,3-diamine derivatives” (University College Cardiff Consultants Limited, priority 2019, dated 2025)
# pEC50: −log10 of the molar value. Like-named read-outs stand apart in the source and are kept apart here.
# How the values were obtained:
# S. mansoni adult worms = experiment: Adult worm drug screen (WHO scoring, WormassayGP2); assay type: cell-based, Schistosoma mansoni; settings: for Selectivity Index Adult: HepG2 CC50 over adult worm EC50; for pEC50: Schistosoma mansoni, adult worms
# How it was run: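 Adult worms perfused from MF-1 mice 7 weeks after infection with 180 cercariae. Motility after drug exposure scored on the WHO-TDR 0–4 microscopic scale (0 = no movement, 4 = normal), checked by image-based motion analysis. Deposited eggs counted.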
# [1] = test system: F. hepatica newly excysted juveniles (NEJs); experiment: Newly excysted juveniles (NEJs) drug screen; assay type: cell-based, Fasciola hepatica; design: scale not given here; settings: 10 μM, 72 h; higher score indicates lower worm activity
# How it was run: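 Italian-strain F. hepatica NEJs, 25 per well, exposed to compound at 10 μM (0.1% DMSO) for 72 h at 37 °C, 5% CO2. Each parasite scored for phenotype and motility; averaged over two replicates, higher score meaning lower worm activity.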
# E. coli ATCC 25922 = experiment: In vitro antibacterial activity; assay type: cell-based; settings: Escherichia coli, ATCC25922
# MRSA EM RSA = experiment: In vitro antibacterial activity; assay type: cell-based; settings: Staphylococcus aureus
# Source text: In vitro Determination of Antibacterial Activity
# Scientific Reports 8 (1), 2018. Bacterial strains of Enterococcus faecalis—ATCC 29212, NCTC 12201, ATCC 51299; Streptococcus pneumoniae—ATCC 49619, 18778, 21394, 21395; Haemophilus influenza—ATCC 49766, 18391, 17428; Staphylococcus aureus—NCTC 12493, ATCC BAA-077, ATCC 700698, 11051; used for testing the compounds, as previously described in “Clinical laboratory testing and in vitro diagnostics test systems—Susceptibility testing of infectious agents and evaluation of performance of antimicrobial susceptibility devices—Part 1: Reference methods for testing the in vitro activity of antimicrobial agentes against bacteria involved in infectious diseases, ISO/FDIS 20776-1:2006(E). All the procedures were carried out in a biosafety containment level 2.
# S. epidermidis NTCT11077 = experiment: In vitro antibacterial activity; assay type: cell-based; settings: Staphylococcus epidermidis
# [2] = Semi thermodynamic solubility; settings: thermodynamic from solid
# [3] = Metabolic stability in mouse liver microsomes; settings: for microsomal CLint at 1 μM: liver microsomes; for half-life at 1 μM: microsomes
# [4] = E. coli ATCC 25922, read-out: MIC90
# [5] = S. epidermidis NTCT11077, read-out: MIC90
Structure (SMILES),Selectivity Index Adult (S. mansoni adult worms),pEC50 (S. mansoni adult worms),Motility (M) Mean score [1],Phenotype (P) Mean score [1],MIC90 (E. coli ATCC 25922; [4]),MIC90 (MRSA EM RSA),MIC90 (S. epidermidis NTCT11077; [5]),solubility thermodynamic [2],microsomal CLint at 1 μM [3],half-life at 1 μM [3],MIC90 (E. coli ATCC 25922),MIC90 (S. epidermidis NTCT11077; NTCT11077),fraction unbound (Plasma protein binding)
"O=[N+]([O-])c1ccc2nc(Nc3ccc(C(F)(F)F)cc3)c(Nc3ccc(C(F)(F)F)cc3)nc2c1 [Compound 11, 6-nitro-N^2, N^3-bis(4-(trifluoromethyl)phenyl)quinoxaline-2,3-diamine]",2320,8.17,4.17,4.28,> 125 µg/mL,3.91 µg/mL,< 62.5 µg/mL,32.8 µM,0.134 µL/min/mg,7.15 days,–,–,–
"O=[N+]([O-])c1ccc2nc(Nc3ccc(F)c(C(F)(F)F)c3)c(Nc3ccc(F)c(C(F)(F)F)c3)nc2c1 [Compound 7, N^2, N^3-bis(4-fluoro-3-(trifluoromethyl)phenyl)-6-nitroquinoxaline-2,3-diamine]",705,7.96,4.56,5.00,–,7.81 µg/mL,–,–,–,–,62.5 µg/mL,< 62.5 µg/mL,–
"COc1ccc(Nc2nc3ccc([N+](=O)[O-])cc3nc2Nc2ccc(OC)c(C(F)(F)F)c2)cc1C(F)(F)F [Compound 12, N^2, N^3-bis(4-methoxy-3-(tritluoromethyl)phenyl)-6-nitroquinoxaline-2,3-diamine]",664,8.07,4.45,4.70,> 125 µg/mL,31.2 µg/mL,< 62.5 µg/mL,4.09 µM,10.8 µL/min/mg,0.0889 days,–,–,0.0134
"O=[N+]([O-])c1ccc2nc(Nc3cccc(Cl)c3)c(Nc3cccc(Cl)c3)nc2c1 [Compound 5, N^2, N^3-bis(3-chlorophenyl)-6-nitroquinoxaline-2,3-diamine]",568,7.92,4.20,4.70,–,3.91 µg/mL,–,–,–,–,> 125 µg/mL,< 62.5 µg/mL,–
